Laboratory results taken from US12240844B2 (Voronoi, Inc., priority 2019, dated 2025).

Columns and labels:
[1] = tested on: SHP-77; assay: SHP-77 cancer cell proliferation inhibition (Cell Titer-Glo); format: cell-based; details: Homo sapiens, SHP77, SHP-77 small cell lung cancer cell line, 72 hours
Protocol: (§1) In order to evaluate the cancer cell proliferation inhibitory activity of the compounds of the present invention, the following experiments were performed.
(§2) To evaluate the cancer cell proliferation inhibitory effect, the cell growth rate analysis was performed while culturing MDA-MB-231 cell line (Korean Cell Line Bank #30026) and MDA-MB-468 cell line as the triple-negative breast cancer cell line, and SHP-77 (ATCC #CRL-2195) as the small cell lung cancer cell line in DMEM (HyClone #SH30243) and RPMI medium (HyClone #SH3027.01), respectively. More specifically, the cell lines were each plated at 2000 cells/100 μl in each well of a 96-well flat-bottom plate (coming #3903), and then the example compounds having eleven concentrations which were diluted by ⅓ so that the final concentrations were 10.000000, 3.333333, 1.111111, 0.370370, 0.123457, 0.041152, 0.013717, 0.004572, 0.001524, 0.000508 and 0.000169 μM were treated. After 72 hours, 100 μl of Cell Titer-Glo (Promega G7573) was treated, incubated at RT for 10 minutes, and then luminescence was measured using a microplate reader. The measured luminescence degree was calculated as GI50 using Prism (version 8.2 GraphPad) software.
(§3) In the table below, the following designations were used for the evaluation of proliferation inhibitory activity.

[2] = molecular target: LRRK2 (Homo sapiens, UniProt Q5S007); assay: LRRK2 enzyme inhibition, ADP-Glo kinase assay; format: biochemical; parameters: purchased Invitrogen PR8604B
LRRK2, sequence (Q5S007 970-2527 limits assumed): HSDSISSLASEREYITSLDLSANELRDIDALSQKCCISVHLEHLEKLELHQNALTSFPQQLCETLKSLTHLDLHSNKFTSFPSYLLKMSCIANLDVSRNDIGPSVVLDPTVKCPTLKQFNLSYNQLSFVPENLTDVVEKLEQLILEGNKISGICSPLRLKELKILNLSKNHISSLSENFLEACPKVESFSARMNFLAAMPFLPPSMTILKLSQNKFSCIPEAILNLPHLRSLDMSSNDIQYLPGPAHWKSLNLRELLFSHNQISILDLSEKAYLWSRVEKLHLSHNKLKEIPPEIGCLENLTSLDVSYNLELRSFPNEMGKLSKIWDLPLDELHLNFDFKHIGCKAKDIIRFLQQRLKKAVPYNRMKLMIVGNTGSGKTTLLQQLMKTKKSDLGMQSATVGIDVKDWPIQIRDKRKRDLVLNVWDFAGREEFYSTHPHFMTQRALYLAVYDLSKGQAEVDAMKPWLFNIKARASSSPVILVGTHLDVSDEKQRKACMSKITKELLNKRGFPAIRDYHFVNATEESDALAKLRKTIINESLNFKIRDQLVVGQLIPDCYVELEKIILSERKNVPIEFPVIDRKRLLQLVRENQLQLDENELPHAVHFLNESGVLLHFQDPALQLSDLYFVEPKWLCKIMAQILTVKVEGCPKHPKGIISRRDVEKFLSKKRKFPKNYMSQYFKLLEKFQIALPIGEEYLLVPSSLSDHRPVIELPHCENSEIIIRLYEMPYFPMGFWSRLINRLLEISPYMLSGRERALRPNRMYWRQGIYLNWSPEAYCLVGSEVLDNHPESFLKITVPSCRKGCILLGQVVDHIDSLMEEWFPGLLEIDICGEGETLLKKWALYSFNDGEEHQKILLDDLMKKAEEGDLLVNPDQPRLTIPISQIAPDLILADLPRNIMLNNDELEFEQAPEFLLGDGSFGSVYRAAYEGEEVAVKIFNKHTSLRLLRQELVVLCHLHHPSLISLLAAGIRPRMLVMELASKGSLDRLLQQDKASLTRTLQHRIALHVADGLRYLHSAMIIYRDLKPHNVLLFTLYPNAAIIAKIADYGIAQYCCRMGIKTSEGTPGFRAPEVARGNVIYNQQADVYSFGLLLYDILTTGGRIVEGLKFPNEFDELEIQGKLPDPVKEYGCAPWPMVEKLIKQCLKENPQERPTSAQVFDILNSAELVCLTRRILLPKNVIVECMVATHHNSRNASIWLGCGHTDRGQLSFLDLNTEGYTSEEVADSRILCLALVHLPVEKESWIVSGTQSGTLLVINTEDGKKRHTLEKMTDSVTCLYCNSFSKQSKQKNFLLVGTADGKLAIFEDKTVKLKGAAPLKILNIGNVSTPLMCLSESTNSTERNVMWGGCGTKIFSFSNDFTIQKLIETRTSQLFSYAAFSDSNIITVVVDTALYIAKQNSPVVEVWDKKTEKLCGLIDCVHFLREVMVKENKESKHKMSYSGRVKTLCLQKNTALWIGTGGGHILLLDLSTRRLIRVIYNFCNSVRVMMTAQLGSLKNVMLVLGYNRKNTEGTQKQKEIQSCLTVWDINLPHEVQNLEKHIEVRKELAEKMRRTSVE
Method in brief: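 ADP-Glo luminescence read after 2 h at 25° C, 10 μM ATP, 25 ng purified human LRRK2 and […] substrate in Tris-HCl pH7.4 buffer with MgCl2, BSA, DTT. Twelve final concentrations, 50 μM down to 0.000001024 μM; IC50 (nM) from inhibition relative to untreated solvent control.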

[3] = molecular target: T1, human GST-DYRK1A (full length) (Homo sapiens, UniProt Q13627); assay: GST-DYRK1A enzyme inhibition, ADP-Glo kinase assay; format: biochemical; details: read-out: DYRK1 IC50
T1 construct: purified human GST-DYRK1A (full length, Thermo scientifics) enzyme; GST; purchased Thermo scientifics
Method in brief: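 ADP-Glo luminescence quantified kinase activity after a 1 h, 25° C reaction of 10 ng full-length GST-tagged human DYRK1A, substrate and 10 uM ATP in Tris-HCl buffer pH 7.4 with MgCl2, BSA and DTT. Triplicate IC50 values (nM) calculated relative to untreated solvent control.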

[4] = molecular target: T2, human GST-CLK1 (129-end) (Homo sapiens, UniProt P49759); assay: GST-CLK1 enzyme inhibition, ADP-Glo kinase assay; format: biochemical; details: ATP 10 uM
T2 construct: purified human GST-CLK1 (129-end, Signalchem) enzyme; GST; purchased Signalchem
T2 sequence (P49759 129-484 limits assumed): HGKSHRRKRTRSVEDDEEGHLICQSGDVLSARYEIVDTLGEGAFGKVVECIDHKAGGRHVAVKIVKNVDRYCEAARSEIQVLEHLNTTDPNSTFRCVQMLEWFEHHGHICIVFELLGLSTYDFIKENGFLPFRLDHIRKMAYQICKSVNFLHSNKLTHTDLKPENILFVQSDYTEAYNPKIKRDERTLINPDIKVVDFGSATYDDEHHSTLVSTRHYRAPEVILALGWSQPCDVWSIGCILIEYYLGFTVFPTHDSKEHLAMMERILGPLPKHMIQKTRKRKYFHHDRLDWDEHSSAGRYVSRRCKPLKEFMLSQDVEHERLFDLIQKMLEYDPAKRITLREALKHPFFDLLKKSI
Method in brief: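 ADP formation was read by ADP-Glo luminescence after 1 h at 25° C with 3 ng human GST-CLK1 (129-end), substrate and 10 uM ATP in Tris pH 7.4 buffer containing MgCl2, BSA and DTT. Inhibition relative to untreated solvent control gave IC50 (nM), run in triplicate.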

[5] = tested on: MDA-MB-231 cell line; assay: MDA-MB-231 cancer cell proliferation inhibition (Cell Titer-Glo); format: cell-based; details: Homo sapiens, MDA-MB-231 triple-negative breast cancer cell line, 72 hours
Protocol: as §1, §2, §3

[6] = molecular target: LRRK2 (G2019S) (Homo sapiens, UniProt Q5S007, G2019S); assay: LRRK2 G2019S enzyme inhibition, ADP-Glo kinase assay; format: biochemical; parameters: purchased SignalChem L10-12GG
LRRK2 (G2019S), sequence (Q5S007 970-2527 G2019S limits assumed): as the sequence (Q5S007 970-2527 limits assumed) above, with G1050S counted along it
Method in brief: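 Activity read as ADP-Glo luminescence, normalized to untreated solvent control, with IC50 (nM) fitted over 12 final compound levels (top 50 μM). Reaction: 2 h, 25° C, human LRRK2 G2019S 16 ng, ATP 25 μM, substrate 0.2 μg, in Tris-HCl pH 7.4 with MgCl2, BSA and DTT.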

Row | Compound | GI50 [1] [nM] | IC50 [2] [nM] | IC50 [3] [nM] | IC50 [4] [nM] | GI50 [5] [nM] | IC50 [6] [nM]
1 | CNc1cc(Nc2ccc(S(=O)(=O)N3CCOCC3)c3c2OCCO3)nc2[nH]cc(C(F)(F)F)c12 [Example 98, N^4-methyl-N^6-(8-(morpholonosulfonyl)-2,3-dihydrobenzo[b] [1,4]dioxin-5-yl)-3-(trifluoromethyl)-1H-pyrrolo[2,3-b]pyridine-4,6-diamine] | 301 to 1000 | 101 to 300 | 101 to 300 | 301 to 1000 | 101 to 300 | < 100
2 | CCNc1cc(Nc2ccc(S(=O)(=O)N3CCOCC3)c3c2OCCO3)nc2[nH]cc(C(F)(F)F)c12 [Example 99, N^4-ethyl-N^6-(8-(morpholonosulfonyl)-2,3-dihydrobenzo[b] [1,4]dioxin-5-yl)-3-(trifluoromethyl)-1H-pyrrolo[2,3-b]pyridine-4,6-diamine] | 301 to 1000 | 301 to 1000 | 301 to 1000 | 301 to 1000 | 301 to 1000 | 301 to 1000
3 | O=S(=O)(c1ccc(Nc2cc(C3CC3)c3c(C(F)(F)F)c[nH]c3n2)c2c1OCCO2)N1CCOCC1 [Example 100, 4-cyclopropyl-N-(8-(morpholinosulfonyl)-2,3-dihydrobenzo[b] [1,4]dioxin-5-yl)-3-(trifluoromethyl)-1H-pyrrolo[2,3-b]pyridine-6-amine] | 301 to 1000 | 301 to 1000 | < 100 | 301 to 1000 | 301 to 1000 | 301 to 1000
4 | COc1cc(S(=O)(=O)N2CCOCC2)ccc1Nc1cc(NC2CC2)c2c(C#N)c[nH]c2n1 [Example 127, 4-(cyclopropylamino)-6-((2-methoxy-4-(morpholinosulfonyl)phenyl)amino)-1H-pyrrolo[2,3-b]pyridine-3-carbonitrile] | < 50 | < 100 | 301 to 1000 | 301 to 1000 | 51 to 100 | 101 to 300
5 | COc1cc(S(=O)(=O)N2CCOCC2)ccc1Nc1cc(NC2CCC2)c2c(C#N)c[nH]c2n1 [Example 128, 4-(cyclobutylamino)-6-((2-methoxy-4-(morpholinosulfonyl)phenyl)amino)-1H-pyrrolo[2,3-b]pyridine-3-carbonitrile] | < 50 | < 100 | 301 to 1000 | 301 to 1000 | 51 to 100 | 301 to 1000
6 | COCCNc1cc(Nc2ccc(S(=O)(=O)N3CCOCC3)cc2OC)nc2[nH]cc(C#N)c12 [Example 129, 6-((2-methoxy-4-(morpholinosulfonyl)phenyl)amino)-4-((2-methoxyethyl)amino)-1H-pyrrolo[2,3-b]pyridine-3-carbonitrile] | < 50 | < 100 | 301 to 1000 | 301 to 1000 | 101 to 300 | < 100
7 | COc1cc(S(=O)(=O)N2CCOCC2)ccc1Nc1cc(NCCS(C)(=O)=O)c2c(C#N)c[nH]c2n1 [Example 130, 6-((2-methoxy-4-(morpholinosulfonyl)phenyl)amino)-4-((2-(methylsulfonyl)ethyl)amino)-1H-pyrrolo[2,3-b]pyridine-3-carbonitrile] | 301 to 1000 | < 100 | 101 to 300 | 301 to 1000 | 301 to 1000 | < 100
8 | CNc1cc(Nc2ccc(S(=O)(=O)N3CCOCC3)cc2OC)nc2[nH]cc(C#N)c12 [Example 131, 6-((2-methoxy-4-(morpholinosulfonyl)phenyl)amino)-4-(methylamino)-1H-pyrrolo[2,3-b]pyridine-3-carbonitrile] | < 50 | < 100 | 301 to 1000 | 301 to 1000 | 51 to 100 | < 100
9 | CCNc1cc(Nc2ccc(S(=O)(=O)N3CCOCC3)cc2OC)nc2[nH]cc(C#N)c12 [Example 132, 4-(ethylamino)-6-((2-methoxy-4-(morpholinosulfonyl)phenyl)amino)-1H-pyrrolo[2,3-b]pyridine-3-carbonitrile] | 51 to 100 | < 100 | 301 to 1000 | 301 to 1000 | 101 to 300 | 101 to 300
10 | CCCNc1cc(Nc2ccc(S(=O)(=O)N3CCOCC3)cc2OC)nc2[nH]cc(C#N)c12 [Example 133, 6-((2-methoxy-4-(morpholinosulfonyl)phenyl)amino)-4-(propylamino)-1H-pyrrolo[2,3-b]pyridine-3-carbonitrile] | 51 to 100 | < 100 | 301 to 1000 | 301 to 1000 | 101 to 300 | 301 to 1000
11 | COc1cc(S(=O)(=O)N2CCC(N3CCOCC3)CC2)ccc1Nc1cc(NC2CC2)c2c(C#N)c[nH]c2n1 [Example 134, 4-(cyclopropylamino)-6-((2-methoxy-4-((4-morpholinopiperidin-1-yl)sulfonyl)phenyl)amino)-1H-pyrrolo[2,3-b]pyridine-3-carbonitrile] | < 50 | < 100 | 301 to 1000 | 101 to 300 | < 50 | < 100
12 | COc1cc(S(=O)(=O)N2CCC(N3CCOCC3)CC2)ccc1Nc1cc(NC2CCC2)c2c(C#N)c[nH]c2n1 [Example 135, 4-(cyclobutylamino)-6-((2-methoxy-4-((4-morpholinopiperidin-1-yl)sulfonyl)phenyl)amino)-1H-pyrrolo[2,3-b]pyridine-3-carbonitrile] | < 50 | < 100 | 301 to 1000 | 301 to 1000 | 51 to 100 | < 100
13 | CNc1cc(Nc2ccc(S(=O)(=O)N3CCC(N4CCOCC4)CC3)cc2OC)nc2[nH]cc(C#N)c12 [Example 137, 6-((2-methoxy-4-((4-morpholinopiperidin-1-yl)sulfonyl)phenyl)amino)-4-(methylamino)-1H-pyrrolo[2,3-b]pyridine-3-carbonitrile] | 51 to 100 | < 100 | 301 to 1000 | 301 to 1000 | 51 to 100 | < 100
14 | CCNc1cc(Nc2ccc(S(=O)(=O)N3CCC(N4CCOCC4)CC3)cc2OC)nc2[nH]cc(C#N)c12 [Example 138, 4-(ethylamino)-6-((2-methoxy-4-((4-morpholinopiperidin-1-yl)sulfonyl)phenyl)amino)-1H-pyrrolo[2,3-b]pyridine-3-carbonitrile] | < 50 | < 100 | 101 to 300 | 301 to 1000 | < 50 | < 100
15 | COc1cc(S(=O)(=O)N2CCOCC2)ccc1Nc1cc(NC2CCC2)c2c(C(F)(F)F)c[nH]c2n1 [Example 203, N^4-cyclobutyl-N^6-(2-methoxy-4-(morpholinosulfonyl)phenyl)-3-(trifluoromethyl)-1H-pyrrolo[2,3-b]pyridine-4,6-diamine] | 301 to 1000 | 301 to 1000 | 301 to 1000 | 301 to 1000 | 301 to 1000 | 
16 | CCOc1cc(Nc2ccc(S(=O)(=O)N3CCC(N4CCOCC4)CC3)cc2OC)nc2[nH]cc(C(F)(F)F)c12 [Example 232, 4-ethoxy-N-(2-methoxy-4-((4-morpholinopiperidin-1-yl)sulfonyl)phenyl)-3-(trifluoromethyl)-1H-pyrrolo[2,3-b]pyridin-6-amine] | 301 to 1000 | 101 to 300 | 101 to 300 | 301 to 1000 | 301 to 1000 | 
